Assay results: US20160272617A1, “SUBSTITUTED PHENYLALANINE DERIVATIVES” (BAYER PHARMA AKTIENGESELLSCHAFT, priority 2013, published 2016)
Counter-ions that a name gives are not always drawn.

Key:
human and animal plasma = experiment: Determination of anticoagulatory activity: activated partial thromboplastin time (aPTT) in plasma; conditions: concentration of test substance which brings about a 1.5-fold extension of the aPTT; plasma species not given
Procedure, shortened: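 Citrated plasma (1:9, 0.11 M citrate; 4000 g, 15 min) from human or animal blood incubated with test compound and cephalin/kaolin PTT reagent for 3 min at 37° C.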

human factor XIa = target: T1, human factor XIa (Homo sapiens, UniProt P03951); experiment: Measurement of FXIa inhibition (fluorogenic peptide substrate Boc-Glu(OBzl)-Ala-Arg-AMC); assay type: biochemical; conditions: factor XIa from Kordia, 15 min preincubation, 30 min at 22° C., fluorescence
T1 construct: purchased Kordia
T1 sequence (P03951 388-625 limits assumed): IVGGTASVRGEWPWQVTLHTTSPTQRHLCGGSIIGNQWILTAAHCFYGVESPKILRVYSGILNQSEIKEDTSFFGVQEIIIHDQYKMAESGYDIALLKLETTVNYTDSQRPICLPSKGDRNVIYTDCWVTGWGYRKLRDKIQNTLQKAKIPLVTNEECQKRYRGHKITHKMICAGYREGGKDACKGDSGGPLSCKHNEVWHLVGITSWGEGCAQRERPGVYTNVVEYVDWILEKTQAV
T1 sequence (P03951 19-387 partner limits assumed): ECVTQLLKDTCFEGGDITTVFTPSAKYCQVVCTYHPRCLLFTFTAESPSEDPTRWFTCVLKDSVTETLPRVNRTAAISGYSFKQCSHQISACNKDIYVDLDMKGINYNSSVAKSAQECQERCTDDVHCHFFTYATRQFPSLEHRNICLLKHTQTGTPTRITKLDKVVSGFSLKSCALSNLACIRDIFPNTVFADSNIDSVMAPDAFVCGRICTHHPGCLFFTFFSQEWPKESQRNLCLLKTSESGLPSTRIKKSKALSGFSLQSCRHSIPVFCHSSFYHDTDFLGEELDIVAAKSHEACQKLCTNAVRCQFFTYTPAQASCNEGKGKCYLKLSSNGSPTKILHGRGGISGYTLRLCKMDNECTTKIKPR
Procedure, shortened: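 Released AMC fluorescence (360/460 nm) read after 30 min at 22 °C. The reaction was started with Boc-Glu(OBzl)-Ala-Arg-AMC (10 μM stock) after a 15 min preincubation of the enzyme (0.45 nM stock) with compound (final 50 μM to 0.00013 μM).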

| SMILES | aPTT (human and animal plasma) [µmol/L] | IC50 (human factor XIa) [nM] |
| --- | --- | --- |
| Cc1c(C(=O)NC2CCNCC2)ccc(-c2ccc(C[C@H](NC(=O)[C@H]3CC[C@H](CN)CC3)C(=O)Nc3ccc(-c4nn[nH]n4)cc3)cc2)c1C [Example 123, 4′-[(2S)-2-({[trans-4-(Aminomethyl)cyclohexyl]carbonyl}amino)-3-oxo-3-{[4-(2H-tetrazol-5-yl)phenyl]amino}propyl]-2,3-dimethyl-N-(piperidin-4-yl)biphenyl-4-carboxamide hydrochloride] | 0.02 | 2.5 |
| Cc1c(C(=O)NC2CCNCC2)ccc(-c2ccc(C[C@H](NC(=O)[C@H]3CC[C@H](CN)CC3)C(=O)Nc3ccc(-c4nn[nH]n4)cc3)cc2)c1Cl [Example 124, 4′-[(2S)-2-({[trans-4-(Aminomethyl)cyclohexyl]carbonyl}amino)-3-oxo-3-{[4-(2H-tetrazol-5-yl)phenyl]amino}propyl]-2-chloro-3-methyl-N-(piperidin-4-yl)biphenyl-4-carboxamide hydrochloride] | 0.1 | 1.8 |
| Cc1c(C(=O)NC2CCN(C)CC2)ccc(-c2ccc(C[C@H](NC(=O)[C@H]3CC[C@H](CN)CC3)C(=O)Nc3ccc(-c4nn[nH]n4)cc3)cc2)c1Cl [Example 125, 4′-[(2S)-2-({[trans-4-(Aminomethyl)cyclohexyl]carbonyl}amino)-3-oxo-3-{[4-(2H-tetrazol-5-yl)phenyl]amino}propyl]-2-chloro-3-methyl-N-(1-methylpiperidin-4-yl)biphenyl-4-carboxamide hydrochloride] | 0.09 | 3 |
| Cc1cc(C(=O)NC2CCNCC2)ccc1-c1ccc(C[C@H](NC(=O)[C@H]2CC[C@H](CN)CC2)C(=O)Nc2ccc(-c3nc(C(F)(F)C(F)(F)C(=O)N(C)C)n[nH]3)cc2)cc1 [Example 126, 4′-{(2S)-2-({[trans-4-(Aminomethyl)cyclohexyl]carbonyl}amino)-3-[(4-{3-[3-(dimethylamino)-1,1,2,2-tetrafluoro-3-oxopropyl]-1H-1,2,4-triazol-5-yl}phenyl)amino]-3-oxopropyl}-2-methyl-N-(piperidin-4-yl)biphenyl-4-carboxamide hydrochloride] | 0.14 | 1.6 |
| Cc1cc(C(=O)NC2CCNCC2)ccc1-c1ccc(C[C@H](NC(=O)[C@H]2CC[C@H](CN)CC2)C(=O)Nc2ccc(-c3nc(C(F)(F)C(F)(F)C(N)=O)n[nH]3)cc2)cc1 [Example 127, 4′-[(2S)-2-({[trans-4-(Aminomethyl)cyclohexyl]carbonyl}amino)-3-({4-[3-(3-amino-1,1,2,2-tetrafluoro-3-oxopropyl)-1H-1,2,4-triazol-5-yl]phenyl}amino)-3-oxopropyl]-2-methyl-N-(piperidin-4-yl)biphenyl-4-carboxamide hydrochloride] | 0.14 | 1.5 |
| CNC(=O)C(F)(F)C(F)(F)c1n[nH]c(-c2ccc(NC(=O)[C@H](Cc3ccc(-c4ccc(C(=O)NC5CCNCC5)cc4C)cc3)NC(=O)[C@H]3CC[C@H](CN)CC3)cc2)n1 [Example 128, 4′-{(2S)-2-({[trans-4-(Aminomethyl)cyclohexyl]carbonyl}amino)-3-oxo-3-[(4-{3-[1,1,2,2-tetrafluoro-3-(methylamino)-3-oxopropyl]-1H-1,2,4-triazol-5-yl}phenyl)amino]propyl}-2-methyl-N-(piperidin-4-yl)biphenyl-4-carboxamide hydrochloride] | 0.14 | 1.7 |
| COC(=O)C(F)(F)C(F)(F)c1n[nH]c(-c2ccc(NC(=O)[C@H](Cc3ccc(-c4ccc(C(=O)NC5CCNCC5)cc4C)cc3)NC(=O)[C@H]3CC[C@H](CN)CC3)cc2)n1 [Example 129, Methyl 3-{5-[4-({(2S)-2-({[trans-4-(aminomethyl)cyclohexyl]carbonyl}amino)-3-[2′-methyl-4′-(piperidin-4-ylcarbamoyl)biphenyl-4-yl]propanoyl}amino)phenyl]-1H-1,2,4-triazol-3-yl}-2,2,3,3-tetrafluoropropanoate hydrochloride] | 0.09 | 1.8 |
| CN(C)C1CCC(NC(=O)c2ccc(-c3ccc(C[C@H](NC(=O)[C@H]4CC[C@H](CN)CC4)C(=O)Nc4ccc(-c5nc(C(F)(F)C(F)(F)C(=O)O)n[nH]5)cc4)cc3)c(C(F)(F)F)c2)CC1 (stereo partly drawn) [Example 132, 3-{5-[4-({(2S)-2-({[trans-4-(Aminomethyl)cyclohexyl]carbonyl}amino)-3-[4′-{[4-(dimethyl-amino)cyclohexyl]carbamoyl}-2′-(trifluoromethyl)biphenyl-4-yl]propanoyl}amino)phenyl]-1H-1,2,4-triazol-3-yl}-2,2,3,3-tetrafluoropropanoic acid hydrochloride] | 0.05 | 1.6 |
| Cc1cc(C(=O)NC2CCCNC2=O)ccc1-c1ccc(C[C@H](NC(=O)[C@H]2CC[C@H](CN)CC2)C(=O)Nc2ccc3cn[nH]c3c2)cc1 (stereo partly drawn) [Example 143, 4′-[(2S)-2-({[trans-4-(Aminomethyl)cyclohexyl]carbonyl}amino)-3-(1H-indazol-6-ylamino)-3-oxopropyl]-2-methyl-N-(2-oxopiperidin-3-yl)biphenyl-4-carboxamide hydrochloride] | 0.07 | 2.3 |
| Cc1cc(C(=O)NC2CCC(N(C)C)CC2(C)C)ccc1-c1ccc(C[C@H](NC(=O)[C@H]2CC[C@H](CN)CC2)C(=O)Nc2ccc(-c3nnn[nH]3)cc2)cc1 (stereo partly drawn) [Example 144, 4′-[(2S)-2-({[trans-4-(Aminomethyl)cyclohexyl]carbonyl}amino)-3-oxo-3-{[4-(1H-tetrazol-5-yl)phenyl]amino}propyl]-N-[4-(dimethylamino)-2,2-dimethylcyclohexyl]-2-methylbiphenyl-4-carboxamide hydrochloride] | 0.06 | 1.8 |
| Cc1cc(C(=O)N[C@@H]2CCNC2=O)ccc1-c1ccc(C[C@H](NC(=O)[C@H]2CC[C@H](CN)CC2)C(=O)Nc2ccc3cn[nH]c3c2)cc1 [Example 145, 4′-[(2S)-2-({[trans-4-(Aminomethyl)cyclohexyl]carbonyl}amino)-3-(1H-indazol-6-ylamino)-3-oxopropyl]-2-methyl-N-[(3R)-2-oxopyrrolidin-3-yl]biphenyl-4-carboxamide hydrochloride] | 0.07 | 3.2 |
| Cc1cc(C(=O)NC2CCC(N(C)Cc3ccccc3)CC2)ccc1-c1ccc(C[C@H](NC(=O)[C@H]2CC[C@H](CN)CC2)C(=O)Nc2ccc(-c3nnn[nH]3)cc2)cc1 (stereo partly drawn) [Example 146, 4′-[(2S)-2-({[trans-4-(Aminomethyl)cyclohexyl]carbonyl}amino)-3-oxo-3-{[4-(1H-tetrazol-5-yl)phenyl]amino}propyl]-N-{4-[benzyl(methyl)amino]cyclohexyl}-2-methylbiphenyl-4-carboxamide hydrochloride] | 0.07 | 1.8 |
| CNC1CCC(NC(=O)c2ccc(-c3ccc(C[C@H](NC(=O)[C@H]4CC[C@H](CN)CC4)C(=O)Nc4ccc(-c5nnn[nH]5)cc4)cc3)c(C)c2)CC1 (stereo partly drawn) [Example 147, 4′-[(2S)-2-({[trans-4-(Aminomethyl)cyclohexyl]carbonyl}amino)-3-oxo-3-{[4-(1H-tetrazol-5-yl)phenyl]amino}propyl]-2-methyl-N-[4-(methylamino)cyclohexyl]biphenyl-4-carboxamide hydrochloride] | 0.01 | 1.7 |
| Cc1cc(C(=O)NC2CCC(N(C)C)CC2)ccc1-c1ccc(C[C@H](NC(=O)[C@H]2CC[C@H](CN)CC2)C(=O)Nc2ccc(-c3nnc(C(F)(F)C(F)(F)C(F)(F)C(=O)O)[nH]3)cc2)cc1 (stereo partly drawn) [Example 148, 4-[5-(4-{[(2S)-2-({[trans-4-(Aminomethyl)cyclohexyl]carbonyl}amino)-3-(4′-{[4-(dimethylamino)cyclohexyl]carbamoyl}-2′-methylbiphenyl-4-yl)propanoyl]amino}phenyl)-4H-1,2,4-triazol-3-yl]-2,2,3,3,4,4-hexafluorobutanoic acid hydrochloride] | 0.07 | 1 |
| Cc1cc(C(=O)NC2CCNCC2(C)C)ccc1-c1ccc(C[C@H](NC(=O)[C@H]2CC[C@H](CN)CC2)C(=O)Nc2ccc(-c3nnn[nH]3)cc2)cc1 (stereo partly drawn) [Example 149, 4′-[(2S)-2-({[trans-4-(Aminomethyl)cyclohexyl]carbonyl}amino)-3-oxo-3-{[4-(1H-tetrazol-5-yl)phenyl]amino}propyl]-N-(3,3-dimethylpiperidin-4-yl)-2-methylbiphenyl-4-carboxamide hydrochloride] | 0.04 | 1.8 |
| CCN(C)C1CCC(NC(=O)c2ccc(-c3ccc(C[C@H](NC(=O)[C@H]4CC[C@H](CN)CC4)C(=O)Nc4ccc(-c5nnn[nH]5)cc4)cc3)c(C)c2)CC1 (stereo partly drawn) [Example 150, 4′-[(2S)-2-({[trans-4-(Aminomethyl)cyclohexyl]carbonyl}amino)-3-oxo-3-{[4-(1H-tetrazol-5-yl)phenyl]amino}propyl]-N-{4-[ethyl(methyl)amino]cyclohexyl}-2-methylbiphenyl-4-carboxamide hydrochloride] | 0.07 | 2.5 |
| COC(=O)C1CCC(NC(=O)c2ccc(-c3ccc(C[C@H](NC(=O)[C@H]4CC[C@H](CN)CC4)C(=O)Nc4ccc(-c5nnn[nH]5)cc4)cc3)c(C)c2)C(=O)N1 (stereo partly drawn) [Example 151, Methyl 5-[({4′-[(2S)-2-({[trans-4-(aminomethyl)cyclohexyl]carbonyl}amino)-3-oxo-3-{[4-(1H-tetrazol-5-yl)phenyl]amino}propyl]-2-methylbiphenyl-4-yl}carbonyl)amino]-6-oxopiperidine-2-carboxylate hydrochloride] | 0.1 | 0.97 |
